In US20240035092A1, “METHODS, KITS, AND SYSTEMS FOR PREDICTING PATIENT OUTCOMES” (SAPERE BIO, INC., priority 2020, published 2024):

How the values were obtained:
[1] = test system: advanced breast cancer, hormone receptor-positive, HER2-negative; assay: Time to progression on CDK4/6i treatment; format: in vivo, human; details: Palbociclib with letrozole or fulvestrant
From the text: Six patients diagnosed with advanced breast cancer who were hormone receptor-positive, HER2-negative, were enrolled into a study and received a CDK4/6 inhibitor, Palbociclib, in combination with hormone-based therapy (letrozole or fulvestrant). Venous blood samples were collected from each patient into an EDTA tube prior to CDK4/6i administration, and at approximately 3 and 6 months (see FIG. 15 for timing) after the start of drug administration. T cells were isolated from blood samples and p16 expression levels were calculated as described in Example 1. Patients were followed to determine how long they received CDK4/6i treatment before becoming resistant to CDK4/6i and their cancer began to progress again (time to progression).

CIPN patients = details: cited from earlier work
[2] = test system: patients diagnosed with early-stage breast cancer; assay: Grade 2 or higher CIPN diagnosed by a clinician (CTCAE-CIPN) during taxane chemotherapy; format: in vivo, human; details: adjuvant or neoadjuvant chemotherapy, at any point during chemotherapy, 89 patients on paclitaxel, 70 on docetaxel
From the text: One hundred fifty-nine patients diagnosed with early-stage breast cancer and scheduled to undergo adjuvant or neoadjuvant chemotherapy treatment that included a taxane regimen (paclitaxel or docetaxel) were enrolled. To be enrolled in the study, each patient must have met all of the inclusion criteria. Inclusion criteria: women ages 21 or older with histologically confirmed Stage I-III breast cancer and scheduled for adjuvant or neoadjuvant chemotherapy. Venous blood samples were collected from each patient into an EDTA tube during the patient's consultation visit with the oncologist or at their first chemotherapy session before chemotherapy was administered. Additional blood samples were collected at the end of chemotherapy treatment for 124 of the initial 159 patients. Median age of patients at consent was 58 years (24-83 range), median p16 was 9.5 (6.8-11.6 range), and median p16Age GAP was −22 years (−94-37 range). T cells were isolated from blood samples and p16 expression levels were calculated as described in Example 1.
Development of grade 2 or higher CIPN as diagnosed by a clinician (CTCAE-CIPN) at any point during chemotherapy was an endpoint of the study. […]

[3] = test system: patients diagnosed with early-stage breast cancer; assay: CIPN risk prediction score built from the p16Age GAP regression model; parameters: species or system human; details: patient with a CIPN score of 11 (scale 0-20)
Description: Regression models were built by step-wise addition of variables such as co-morbidities, chronological age, p16, or p16Age GAP and interactions between the variables were also considered. […] In contrast, when p16Age GAP was used instead of p16 (Model 2), p16Age GAP was able to replace all co-morbidities, chronological age, and p16 as variables to yield the model with the similar fit (AUC 0.76, NPV 87%). The ROC curve depicted in FIG. 4 was calculated using Model 2. The p16Age GAP-containing model was a strong predictor of the risk of developing CIPN.
The data from the regression model shown in FIG. 4 was used to build a CIPN risk prediction score according to standard methods (see, e.g., Hurria, J. Clin Oncol. (2011) and Hurria J. Clin Oncology, (2016)). All variables were assigned a weight based on their R coefficients in the regression model and the sum of all weights was added to create a final risk score for each patient. For a CIPN risk model, the range was adjusted so the total score scale was 0-20, with a single value for each patient. […] In certain embodiments, this risk differential between regimens of similar efficacy can help guide regimen selection. […]

In the case of `CC(=O)c1c(C)c2cnc(Nc3ccc(N4CCNCC4)cn3)nc2n(C2CCCC2)c1=O` [CDK 4/6i, Palbociclib], the “time to progression (resistance to CDK 4/6i treatment)” value ([1]; four patients whose p16 expression did not increase above measurement precision) was 35-50 months and the “time to progression (resistance to CDK 4/6i treatment)” value ([1]; two patients whose p16 expression increased above measurement precision after treatment) was 10-20 months.
For `CNCC[C@H](Oc1cccc2ccccc12)c1cccs1` [Duloxetine], the “decrease in pain score, on average” value (CIPN patients; CIPN patients, improvement derived primarily from patients who received platinum-containing agents) is given as “one” and the “benefit on CIPN pain” value (CIPN patients; patients receiving taxanes) is given as “no clear benefit”.
In the case of `CC(=O)O[C@@]12CO[C@@H]1C[C@H](O)[C@@]1(C)C(=O)[C@H](O)C3=C(C)[C@@H](OC(=O)[C@H](O)[C@@H](NC(=O)OC(C)(C)C)c4ccccc4)C[C@@](O)([C@@H](OC(=O)c4ccccc4)[C@H]21)C3(C)C` [docetaxel], the “patients who developed grade 2 or higher CIPN” value [2] was 10% and the “risk of CIPN” value [3] was 9%.
With `CC(=O)O[C@H]1C(=O)[C@@]2(C)[C@H]([C@H](OC(=O)c3ccccc3)[C@]3(O)C[C@H](OC(=O)[C@H](O)[C@@H](NC(=O)c4ccccc4)c4ccccc4)C(C)=C1C3(C)C)[C@]1(OC(C)=O)CO[C@@H]1C[C@@H]2O` [paclitaxel] the “patients who developed grade 2 or higher CIPN” value [2] was 46% and the “risk of CIPN” value [3] was 50%.
